Patent US9931332B2, “Compositions and methods for treating primary effusion lymphoma” (University of Southern California, priority 2014, dated 2018)
Each block holds one compound with its values, some of them ahead of it.

Legend:
BC-3 and BCBL-1 cells [1] = experiment: Combination index (Chou and Talalay, calcusyn), MTS viability; assay type: cell-based; settings: low doses, 12 combinations each, all combination doses tested
Procedure: (§1) Cells from exponentially growing cultures were plated in untreated flat-bottom 96 well plates at a density of 5×10^3 cells/well, treated with an increasing concentration of the drugs and subsequently assessed for cell viability using the MTS reagent (3-4,5-dimethylthiazol-2yl)-5-(3-carboxy-methoxyphenyl)-2-(4-sulfophenyl)-2H-tetrazolium, inner salt) following the manufacturer's instructions (Promega). Percent cell survival was calculated based on the reading of cells grown in the presence of DMSO control. Experiments were performed in triplicate and have been repeated 2-3 times.

BC-3 cells = experiment: PEL orthotopic tumor model; assay type: in vivo, NOD.SCID mice; set-up: dose or concentration left out as unconfirmed; settings: once daily for 28 days, intraperitoneally
Procedure: A total of 2×10^7 BC-3 cells were injected intraperitoneally into female NOD.SCID mice (NCI Frederick, 6 weeks old). 5 days after tumor cells inoculation the mice were randomly divided in to 4 groups (n=7 each). […] (once daily), JQ-1 50 mg/kg b.w. (once daily) and the combination were administered intraperitoneally daily for 28 days. Then the animals were monitored for survival. Body weight gain was measured once in 3 days as a surrogate measure of tumor progression (Qin et al., 2014). The experiments were performed following the guidelines of institutional animal ethics committee.

[2] = tested on: panel of hematological cancer cell lines; experiment: Cell viability, MTS assay, panel of hematological cancer cell lines; assay type: cell-based; settings: 5 days, increasing concentrations
Procedure: as §1

PEL cell lines = experiment: Cell viability, MTS assay; assay type: cell-based; settings: for sensitivity of the 5 PEL cell lines to recombinant IFN: BC-3, BCBL-1, JSC-1, BC-1 and VG-1, 5 days; for PEL cell lines sensitive within physiologically achievable doses: 7 PEL cell lines, increasing concentrations
Procedure: as §1

BJAB cells = experiment: Cell viability, MTS assay; assay type: cell-based; settings: 5 days
Procedure: as §1

[3] = tested on: IKZF1 (Ikaros), IKZF3 (Aiolos); experiment: Immunoblot of IKZF1 and IKZF3 expression; assay type: cell-based; settings: BC-3 and BCBL-1, MLN4924 pretreatment 1 h then IMiDs 15 h
Procedure: (§2) Cells were lysed in lysis buffer containing 20 mM sodium phosphate (pH 7.4), 150 mM NaCl, 0.1% Triton X-100, 0.2 M PMSF, and 10% glycerol supplement with a protease inhibitor mixture tablet (Roche). Whole cell extracts were resolved by SD-polyacrylamide gel electrophoresis, transferred to nitrocellulose membrane, and probed with the indicated primary antibodies. Bound antibodies were detected with IRdye 680 or 800 (Licor biosciences) and blots were scanned with licor odyssey CLx imaging system (Licor biosciences). Primary antibodies used in these experiments were from the following sources: PARP (9542), NF-κB2 (p100/p52; 4882) from Cell Signaling; IRF4 (6059), IKZF1 (13039), HSP90 (69703), IKKα/β (7607), RELB (226) from Santa Cruz Biotechnology; MYC (1472-1, Epitomics); tubulin (T9026), cereblon (HPA045910) from Sigma; GAPDH (1107018, Ambion), IKZF3 (6255, Imgenex) and BRD4 (a gift from Dr. Peter Howley, Harvard Medical School).

cereblon (CRBN) = cereblon (CRBN) (Homo sapiens, UniProt Q96SW2); settings: 48 h
Procedure: Cells were lysed in lysis buffer containing 20 mM sodium phosphate (pH 7.4), 150 mM NaCl, 0.1% Triton X-100, […], and 10% glycerol supplement with a protease inhibitor mixture tablet (Roche). Whole cell extracts were resolved by SD-polyacrylamide gel electrophoresis, transferred to nitrocellulose membrane, and probed with the indicated primary antibodies. Bound antibodies were detected with IRdye 680 or 800 (Licor biosciences) and blots were scanned with licor odyssey CLx imaging system (Licor biosciences).

PEL = settings: treated for 18 months so far (Antar et al., 2014); cited from earlier work
[4] = tested on: IKKα/β, p100/p52 and RELB; experiment: Immunoblot of NF-κB proteins; assay type: cell-based; settings: BC-3, BCBL-1, JSC-1 and DG-75 cells, increasing doses
Procedure: as §2

PEL cells = experiment: Real-time qRT-PCR of mRNA expression; assay type: cell-based
Procedure: Real-time quantitative reverse transcript-polymerase chain reaction (qRT-PCR) was performed with SYBR Green using gene-specific PCR primers. Samples were run in triplicate, and PCR was performed by an ABI Step One Plus thermocycler (Applied Biosystems). GAPDH was used as housekeeping gene and qRT-PCR data (Ct values) was analyzed using the 2^−ΔΔCT method as described earlier (Zhao et al., 2007). The qRT-PCR data was presented as fold change in target gene expression±standard error.

IL-6 = IL-6 ELISA in supernatants of BC-3 cells; assay type: cell-based, Human; settings: 12, 24 and 48 h
Procedure: IL-6 was measured in supernatants using BD OptEIA™ Human IL-6 ELISA set as per manufacturer's instructions.

BC-3 and BCBL-1 cells [5] = experiment: Genome-wide microarray analysis; settings: 5 μM, 24 h
Procedure: Two technical replicates per cell line per condition (8 samples total) were assayed on the Illumina Human HT12 BeadChip whole genome expression microarray, with coverage of 39809 coding transcripts and 3961 non-coding transcripts. Probe intensities were extracted directly from binary IDAT files using the ‘illuminaio’ package (Smith et al., 2013). Background correction and normalization was then performed using ‘limma’ package (Smyth, 2005). An estimate of the fraction of probes with detectable expression (approximately 47% of the probes present on the array) was extracted by comparing the negative control probe intensities with hybridization probe intensities; probes failing this cutoff were filtered from further analysis. An empirical Bayes linear model including treatment and cell-line specific effects was fitted to the filtered data, again using ‘limma’. […] Hierarchial clustering with Euclidean distance and centroid linkage was performed in R (http://www.R-project.org). A heat map of differences (corrected for cell-line-specific effects) was plotted.

[6] = BC-3, BCBL-1 and JSC-1, 5 μM, 24 h

Sequence of cereblon (CRBN) (Q96SW2 whole entry): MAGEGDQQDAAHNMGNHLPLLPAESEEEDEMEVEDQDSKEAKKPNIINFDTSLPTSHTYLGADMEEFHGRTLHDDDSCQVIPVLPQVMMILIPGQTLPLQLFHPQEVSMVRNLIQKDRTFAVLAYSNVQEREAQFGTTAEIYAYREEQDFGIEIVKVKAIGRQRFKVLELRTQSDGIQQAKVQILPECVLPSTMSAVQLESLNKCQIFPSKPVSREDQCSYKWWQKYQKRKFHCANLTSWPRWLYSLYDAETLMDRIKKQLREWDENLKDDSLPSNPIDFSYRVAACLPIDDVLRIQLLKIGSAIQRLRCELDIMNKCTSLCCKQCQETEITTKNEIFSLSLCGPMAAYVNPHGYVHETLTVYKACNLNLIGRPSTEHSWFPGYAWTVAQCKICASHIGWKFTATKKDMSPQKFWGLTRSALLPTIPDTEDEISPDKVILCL

Compound: COc1cc2c(cc1-c1c(C)noc1C)ncc1[nH]c(=O)n([C@H](C)c3ccccn3)c12 [IBET151]
- synergy of lenalidomide with BRD4 inhibitor (combination index) (BC-3 and BCBL-1 cells [1]): highly synergistic

Compound: Cc1sc2c(c1C)C(c1ccc(Cl)cc1)=N[C@@H](CC(=O)OC(C)(C)C)c1nnc(C)n1-2 [JQ-1]
- median survival (BC-3 cells): 42 days
- synergy of lenalidomide with BRD4 inhibitor (combination index) (BC-3 and BCBL-1 cells [1]): highly synergistic

Compound: COc1ccccc1S(=O)(=O)Nc1ccc2c(c1)CN(C)C(=O)N2 [PFI-1]
- synergy of lenalidomide with BRD4 inhibitor (combination index) (BC-3 and BCBL-1 cells [1]): highly synergistic

Compound: O=C1CCC(N2C(=O)c3ccccc3C2=O)C(=O)N1 (stereo not shown) [thalidomide]
- effect on the growth of the cell lines [2]: did not have any major effect

Compound: IFN-γ: recombinant interferon γ
- sensitivity of the 5 PEL cell lines to recombinant IFN (PEL cell lines): sensitive
- effect of recombinant IFN on BJAB (BJAB cells): without any significant effect

Compound: NS(=O)(=O)OC[C@@H]1C[C@@H](n2ccc3c(N[C@H]4CCc5ccccc54)ncnc32)C[C@@H]1O [MLN4924]
- effect on downregulation of IKZF1 by IMiDs [3]: completely blocked

- CRBN level in BCBL-1 cells (cereblon (CRBN)): no change
- level of cereblon in BC-3 cells (cereblon (CRBN)): slight decrease
Compound: Nc1cccc2c1C(=O)N(C1CCC(=O)NC1=O)C2=O (stereo not shown) [pomalidomide]
- PEL cell lines sensitive within physiologically achievable doses (PEL cell lines; 5 days): 6/7

Compound: Nc1cccc2c1CN(C1CCC(=O)NC1=O)C2=O (stereo not shown) [lenalidomide]
- outcome of elderly HIV-negative, KSHV-positive PEL patient (PEL): without any symptoms or evidence of disease progression
- expression of IKKα/β, p100/p52 and RELB proteins [4]: did not have any significant effect
- median survival (BC-3 cells): 35 days
- mRNA levels of IKZF1 (PEL cells; [6]): moderately up-regulated
- mRNA levels of IRF4, MYC and its target TERT (PEL cells; [6]): down-regulated mildly, and moderately
- transcript levels of IFNs and interferon specific genes (ISGs) (PEL cells; BCBL-1 cells, 5 μM, 24 hours): upregulated
- IL-6 secretion by BC-3 cells (IL-6): did not have any significant effect
- PEL cell lines sensitive within physiologically achievable doses (PEL cell lines; 5 days): 5/7
- downregulated genes (BC-3 and BCBL-1 cells [5]): 390 genes
- upregulated genes (BC-3 and BCBL-1 cells [5]): 602 genes
- genes whose expression changed significantly (pFDR<0.05) (BC-3 and BCBL-1 cells [5]; both cell lines): 992 genes

Compound: IFN-α
- sensitivity of BC-3, BCBL-1 and JSC-1 to recombinant IFN (PEL cell lines; 5 days): highly sensitive
- sensitivity of the 5 PEL cell lines to recombinant IFN (PEL cell lines): sensitive
- effect of recombinant IFN on BJAB (BJAB cells): very little effect
